Experimental data reported in patent publication US9587220B2, “Method for inducing cardiac differentiation of pluripotent stem cell” (Kyoto University, priority 2012, dated 2017).
Entries after “also recorded” stand apart in the source; their conditions may differ. Where two headings read alike, the source gives them in different places.

Columns and labels:
[1] = test system: KY02111-induced cardiomyocytes (KY-CMs); conditions: depolarizing pulses -40 to +40 mV for 500 msec
Procedure: Cells were isolated from beating hPSC-derived cardiomyocytes, using protease solution. The dissociated cells were cultured for 3-7 d on gelatin-coated cover glasses. Patch-clamp recordings were performed in a temperature-controlled room at approximately 25° C. Data from the whole cell patch-clamp configuration were recorded from spontaneously beating cells, using a HEKA EPC10 amplifier (HEKA Instruments Inc.). An external solution containing 140 mM NaCl, 5 mM KCl, 10 mM HEPES, 2 mM CaCl2, 1 mM MgCl2, and 10 mM glucose was adjusted to pH 7.2 with NaOH. A pipette solution containing 80 mM K-aspartate, 50 mM KCl, 1 mM MgCl2, 10 mM EGTA, 3 mM ATP-Mg, and 10 mM HEPES was adjusted to pH 7.2 with KOH. […] The inhibitors were obtained from Sigma-Aldrich. […] The current-voltage relationship was obtained by holding the membrane potential at −40 to −60 mV, and delivering a depolarizing pulse for 500 ms in a stepwise manner, in increments from −60 to 60 mV for INa, −40 to 40 mV for ICaL, −40 to 40 mV for IKs and IKr, and −50 to −140 mV for Ih.

[2] = test system: human αMHC promoter-driven EGFP transgenic monkey ESCs; experiment: αMHC promoter-driven GFP expression, cardiac differentiation of transgenic monkey ESCs (HCA); type: cell-based; conditions: for intensity of the GFP signal driven by αMHC promoter: comparison of chemical and proteinaceous WNT inhibitors, FIG. 3b,c
Excerpt: To generate human αMHC promoter-driven EGFP-expressing monkey ESCs, the 918 bp upstream from the transcriptional starting site and the third exon just before the open reading frame were amplified from genomic DNAs of KhES-1 hESCs by PCR, using the following primer sets —forward primer, 5′- […]-3′ (SEQ ID No: 37); reverse primer, 5′- (including a SalI linker) 22 […]-3′ (SEQ ID No: 38)—and then ligated into pGEM-T Easy Vector (Promega). The HindIII/SalI fragment from the cloning vector was connected with pEGFP-1 (Clontech). The linearized αMHC-EFGP vector was introduced into CMK6.4 monkey ESCs by electroporation. Transgenic ESC clones were selectively grown with G418 (Sigma-Aldrich). The expression of EGEP was confirmed in beating colonies.
The confluent (4-5 d after passage) αMHC-GFP transgenic monkey ESCs were dissociated enzymatically by CTK solution (Non-patent literature 1), and the ESC clumps (40-100 μm in diameter) were obtained using 40 and 100 μm Cell Strainers (BD Biosciences). The ESC clumps (approximately 5.0×10^3 cells well^−1) were transferred onto 96-well plates (Greiner Bio-One, 96-well black plate, Cat. No. 655090) and incubated in cardiac differentiation medium as described in (4) below. During Days 6-14 of cardiac differentiation, 9600 compounds from the chemical library (dissolved in DMSO) were screened using 96-well plates. Sixteen and 80 wells were used for the control (0.1% DMSO) and chemical compounds (1 per well), respectively. Final concentration of the each compound was approximately 1-5 μM. Medium containing small molecules was changed every 4 d. On Day 14, GFP fluorescence of ESCs was measured by whole-plate scanning, using the Metamorph imaging system (Molecular Device). Metamorph software was used to analyze the GFP fluorescence data and calculate Fluorescence Area, Total Fluorescence Intensity, Average Fluorescence Intensity, and number of GFP-positive colonies for each well. Hit compounds were determined by the following criteria: Average Fluorescence Intensity of a well with the compound was >6 SD greater than Average Fluorescence Intensity of the control (mean of 16 wells), and Total Fluorescence Intensity for the compound was >0 SD greater than the control; or Total Fluorescence Intensity of the compound was >4 SD greater than the control, and Average Fluorescence Intensity of the compound was >0 SD greater than the control. One hundred and twenty compounds passed these criteria and were retested using 8 wells for each compound.
Confluent hESCs and hiPSCs were gently detached with CTK solution and transferred into Petri dishes (BD Biosciences) with Primate ES Cell Culture Medium (ReproCELL, Japan). Cells were held in suspension culture for 8-24 h to form aggregates. The sizes of hPSC aggregates (0.3-1 mm in diameter) are important for efficient differentiation. Following suspension culture, cell aggregates were attached to culture dishes (3-10×10^5 cells cm^−2) in cardiac differentiation medium: IMDM (Sigma), containing 20% FBS (Gibco), 1% MEM non-essential amino acid solution (Sigma), 1% Penicillin-Streptomycin (Gibco), 2 mM L-glutamine (Sigma), 0.001% 2-Mercaptoethanol (Gibco), and 0.005N NaOH, with 10 ng ml^−1 BMP4 (R&D Systems). The medium was changed to cardiac differentiation medium with 10 μM KY02111 and/or other WNT inhibitors added on Day 3 (hiPSC lines) or Day 4 (human or monkey ESC lines); XAV939 (Wako, Japan), IWP-2 (Santa Cruz Biotechnology), IWR-1 (Merck4Bioscience), IGFBP4 (R&D Systems), Dkk1 (R&D Systems) and the mixture of bFGF (R&D Systems), BMP4 (R&D Systems), VEGF (R&D Systems), DKK1 (R&D Systems), and Activin A (R&D Systems) (Non-patent literature 16). Medium was changed every 2-3 d. KY02111 and other WNT inhibitors were added until Day 9 for hiPSC lines and the monkey ESC line, or Day 14 for hESC lines. […]

[3] = test system: WNT target genes in IMR90-1 hiPSCs; experiment: Microarray and qPCR gene expression of WNT target genes; type: cell-based, human; conditions: 12, 24 and 72 h after treatment
Procedure: IMR90-1 iPSCs were cultured in cardiac differentiation medium containing serum. On Day 3, cells were treated with 10 μM KY02111 or 0.1% DMSO for 0, 12, or 24 h. Non-treated cells (0 h), cells treated with KY02111 for 12 h (KY12hr) or 24 h (KY24hr), and cells treated with 0.1% DMSO for 12 h (DMSO12hr) or 24 h (DMSO24hr) were used for microarray analysis. Total RNA was prepared using the RNeasy Mini Kit (Qiagen), according to the manufacturer's instructions. Synthesis of cDNA, in vitro transcription and biotin labeling cRNA, and hybridization to the Human Gene 1.0 ST array (Affymetrix) were performed according to Affymetrix protocols. Hybridized arrays were scanned using an Affymetrix GeneChip Scanner. Data normalization and further analysis were performed with GeneSpring GX (Agilent Technologies). Proportions of treated cells expressing genes relative to control (KY02111/DMSO) were calculated for each time point. […] The microarray data have been submitted to the Gene Expression Omnibus (GEO) public database at NCBI (GEO accession number, GSE33622).
Total RNA was isolated with an RNeasy Mini Kit (QIAGEN). Genomic DNA was completely digested with DNase I (Invitrogen). Total RNA (0.5 μg) was subjected to cDNA synthesis using the SuperScript III Reverse Transcriptase (Invitrogen). qRT-PCR was performed in triplicate, using SYBER GREEN PCR Master Mix on a 7500 Real Time PCR System (Applied Biosystems). The cycling conditions were as follows: 10 min at 95° C.; 40 cycles, each consisting of 15 s at 95° C.; 1 min at 60° C. Total RNA from human adult heart tissue (BioChain) was used to evaluate the expression levels of cardiac marker genes for cardiomyocytes derived from hPSCs. All values were normalized with respect to GAPDH expression level and expressed relative to the corresponding values in human adult hearts (100%).

KY-CM colony = experiment: QT interval prolongation assay on microelectrode array; type: cell-based, human; conditions: astemizole 300 pM to 30 μM, increased every 4 min
Procedure: Microelectrode array (MEA) dishes (Multi Channel Systems, Reutlingen, Germany) were coated with ReproCoat (RCESD006, ReproCELL, Japan) in 5% CO2 for 1 h at 37° C. After coating, KY02111-induced cardiomyocytes at Day 30 were transferred into 1 ml of Cardiomyocyte Culture Medium (RCESD006, ReproCELL, Japan) on the MAE dish. Using a pipet tip or glass bar, the cardiomyocytes were gently moved onto the electrode and cultured overnight to attach to the MEA dishes. On the following day, the medium was changed into Cardiomyocyte Test Medium (RCESD003, ReproCELL, Japan). After confirming the presence of beating cardiomyocytes, the MEA dishes were attached to an MEA amplifier (Multi Channel Systems, Reutlingen, Germany), and electrocardiogram-like waves were recorded. After 2 min of recording, 300 pM astemizole (Sigma) or 0.1% DMSO were added, and the concentrations of astemizole (300 pM to 30 μM) were increased every 4 min. ECG-like waves were recorded after 2 min of each astemizole treatment. Beating rate, Na^+ amplitude, K^+ amplitude, and Na^+—K^+ interval were analyzed by LabChart™ software v7 (ADInstruments, Adelaide, Australia).

[4] = test system: human αMHC promoter-driven EGFP transgenic monkey ESCs; experiment: αMHC promoter-driven GFP expression, cardiac differentiation of transgenic monkey ESCs (HCA); type: cell-based

## CCS(=O)(=O)N(C)[C@H]1c2cc(C#N)ccc2OC(C)(C)[C@@H]1O [chromanol293B]
[1]
  KCNQ1 current (IKs): clearly detected
[1]; listed as Chromanol293B
  KCNQ1 current (IKs): suppressed

## O=C(Nc1cccc2cccnc12)c1ccc(N2C(=O)[C@@H]3[C@H](C2=O)[C@@H]2C=C[C@H]3C2)cc1 [IWR-1, reference compound]
[2]
  intensity of the GFP signal driven by αMHC promoter: increased

## O=C1Nc2cc(Br)ccc2/C1=C1/Nc2ccccc2/C1=N\O [BIO]
[3]
  expression levels of WNT target genes by qPCR: tended to augment

## COc1ccc(CCCC(=O)Nc2nc3ccc(Cl)cc3s2)cc1OC [KY02114, 2-(4-(3,4-dimethoxyphenyl)butanamide)-6-chlorobenzothiazole]
[2]; DMSO=100%
  GFP expression level induced by N11474 and related compounds (structure-activity): induced the highest levels

## COc1ccc(CCN2CCC(Nc3nc4ccccc4n3Cc3ccc(F)cc3)CC2)cc1 [astemizole]
KY-CM colony
  Na+-K+ interval of ECG-like waves: prolonged

## COc1ccc2nc(NC(=O)Cc3ccc(OC)c(OC)c3)sc2c1 [N11474]
[4]; treatment after Day 8 (Days 8-12 or Days 10-14)
  αMHC promoter-driven EGFP signal on Day 14: less effective
[4]; treatment on Days 0-4
  αMHC promoter-driven EGFP signal on Day 14: completely repressed GFP expression; also recorded: completely suppressed GFP expression
[4]; treatment on Days 4-8
  αMHC promoter-driven EGFP signal on Day 14: maximized the increase in GFP expression; also recorded: most effective
[4]; treatment on Days 6-10
  αMHC promoter-driven EGFP signal on Day 14: similarly effective to the screening protocol
[2]; chemical screening, treatment Days 6-14, P=0.015
  GFP fluorescence of ESCs compared to DMSO: significantly increased; also recorded: significantly enhanced

B1: IGFBP4: proteinaceous WNT inhibitor (protein, UniProt P22692 22-258, looked up)
Insulin-like growth …: DEAIHCPPCSEEKLARCRPPVGCEELVREPGCGCCATCALGLGMPCGVYTPRCGSGLRCYPPRGVEKPLHTLMHGQGVCMELAEIEAIQESLQPSDKDEGDHPNNSFSPCSAHDRRCLQKHFAKIRDRSTSGGKMKVNGAPREDARPVPQGSCQSELHRALERLAASQSRTHEDLYIIPIPNCDRNGNFHPKQCHPALDGQRGKCWCVDRKTGVKLPGGLEPKGELDCHQLADSFRE
[2]
  intensity of the GFP signal driven by αMHC promoter: increased

B2: DKK1: proteinaceous WNT inhibitor (protein, UniProt O94907 32-266, looked up)
Dickkopf-related protein 1: TLNSVLNSNAIKNLPPPLGGAAGHPGSAVSAAPGILYPGGNKYQTIDNYQPYPCAEDEECGTDEYCASPTRGGDAGVQICLACRKRRKRCMRHAMCCPGNYCKNGICVSSDQNHFRGEIEETITESFGNDHSTLDGYSRRTTLSSKMYHTKGQEGSVCLRSSDCASGLCCARHFWSKICKPVLKEGQVCTKHRRKGSHGLEIFQRCYCGEGLSCRIQKDHHQASNSSRLHTCQRH
[2]
  intensity of the GFP signal driven by αMHC promoter: increased
